# Source: patent US20050071891A1, “Repressible sterility of animals” (priority 1999, published 2005)
# Assays:
# P19 cells = experiment: Luciferase activity of reporter constructs transiently transfected in P19 cells; assay type: cell-based, mouse; conditions: for luciferase activity compared to the promoterless construct (pSFM 21) / luciferase activity, Average / luciferase activity, Fold: P19 cells; for luciferase activity compared to the promoterless construct (pSFM 21): transient; for luciferase activity, Average: transient transfection; for luciferase activity, Fold: relative to pSFM 21
# Experimental: For transient transfection assays, P19 cells were cultured on gelatinized dishes in DMEM supplemented with 10% fetal bovine serum. Cells (0.3 million per well in 6-well cluster plates) were transfected with 5 μg reporter plasmid using transfection reagent ‘Geneporter’ from Gene Therapy Systems according manufacturer's recommendation.
# (§1) Fluorescent and transmitted light images were acquired using a CCD camera with a microscope. […] The luminescence assays were conducted by using a dark 96 well plate was done by Victor2 from Wallac or by Topcount NXT from Can berra Packard.
# P19 cells were transiently transfected in 6 well plates with pSFM 20 (goosecoid promoter-luciferase), pSFM 21 (promoterless luciferase) and pSFM 23 (CMV promoter-luciferase) using Gene Porter. Cells were harvested at various times post-tranfection and assayed for luciferase activity using a Promega kit (Cat. # E1501) in a Top Count NXT luminometer. […]
# P19-pSFM 7 cells [1] = experiment: Luciferase activity of reporter plasmids transiently transfected in P19-pSFM 7 cells; assay type: cell-based, mouse; conditions: for luciferase activity, Fold: relative to pSFM 21; for luciferase activity, Average: transient transfection
# Description: Reporter plasmids pSFM 20 (goosecoid promoter luciferase+), pSFM 21 (promoterless luciferase+), pSFM 23 (CMV promoter luciferase+) and pSFM 25 (TRE luciferase+) were transiently transfected into either P19 or P19-pSFM 7 (Goosecoid TET/OFF) cells to test the effectiveness of the TET-OFF genetic switch driven by goosecoid promoter.
# P19-pSFM 7 cells [2] = experiment: Luciferase activity of pSFM 25 in P19 clones stably integrated with pSFM 7; assay type: cell-based, mouse
# Experimental: Stably integrated P19 clones were obtained by using BioRad Gene Pulser II electroporation system. 30 μg DNA electroporated into 10 million cells under following conditions 960 μF and 0.16 kV in a 0.4 cm cuvette (0.4 kV/cm). The next day normal media were replaced with appropriate selection media (300 μg/ml G418).
# Selection of a P19 cell line stably integrated with a goosecoid-dependent TET-OFF transactivator P19 cells were electroporated with pSFM 7 (Goosecoid promoter-TET/OFF) linearised with ApaLI and selected for stable integration.
# Table 20 showes the luciferase activities of pSFM 25 (TRE luciferase+) shown in counts per second (cps) of transiently transfected in P19-pSFM 7 cells.
# Addition of doxycycline at 1 μg/ml reduced luciferase activity from pSFM 25 in this clone by 90 fold. This clone, containing stably integrated pSFM 7 was therefore designated P19-pSFM 7 and used for further testing.
# goosecoid = experiment: Cotransfection of blocker plasmids with pSFM 6 (goosecoid fused to RFP) in P19-pSFM 7 cells; assay type: cell-based, mouse; conditions: transiently cotransfected with pSFM 6
# Experimental: as §1
# The first stage for testing blocker constructs is to set up an appropriate cell system to detect expression of reporter constructs. Initially, either pdsRED-N1 (CMV promoter RFP), pSFM 6 (CMV promoter goosecoid cDNA fused to RFP) or pSFM 24 (TRE EGFP) were transfected into P19-pSFM 7 cells to test the expression patterns of the EGFP, RFP and goosecoid-fused to RFP proteins (FIG. 37). […] In these cases, RFP expression fused to goosecid in the nucleus is expected to be inhibited in the presence of an appropriate blocker.
# In order to assess various antisense and dsRNA blockers, pSFM 6 (CMV promoter goosecoid fused to RFP) was transiently cotransfected into the P19-pSFM 7 (Goosecoid promoter TET/OFF) cells along with either pSFM 5 (TRE promoter dsRNA goosecoid), pSFM 8, (CMV promoter antisense goosecoid), pSFM 9 (TRE promoter antisense goosecoid) or pSFM 24 (TRE promoter EGFP). […] There are several potential reasons for the absence of RNA blocker effects. First, antisense and dsRNA blockers may not be expressed at levels high enough to effectively interfere with the target mRNA molecules. Secondly, there may be cellular mechanisms in mammals that recognize and interfere with such constructs. Thirdly, the RNA inhibitory molecules may not be able to access and block the RNA target.
# Pacific oyster larvae = experiment: Electroporation of oyster sperm, GUS as reporter gene; assay type: in vivo, Crassostrea gigas
# Experimental: Mature oysters (Crassostrea gigas) were obtained from local hatcheries in Tasmania and New South Wales, and held in artificial seawater at 10° C. until required. Eggs were collected from 2-3 females by stripping the gonads and were pooled, rinsed on a 20 μm mesh, and left to condition in artificial sea water for 2 h. Sperm were stripped from male gonads, diluted to approximately 10,000 gametes/μl, and used immediately for electroporation-mediated nucleic acid delivery. Plasmid DNA (50 μg/ml) or double-stranded RNA (dsRNA; 1 μg/ml) was delivered into 1×10^6 sperm using a BioRad Gene Pulser II electroporator in 0.2 cm gap electroporation cuvettes. Sperm were subjected to a single electroporation pulse (50 V, 100% modulation, 10 kHz, 12.5 msec) and immediately mixed with 5000 oocytes. Fertilized embryos and developing larvae were reared at 20° C. in artificial seawater containing 0.1 μg/ml chloramphenicol. Surviving larvae were counted after 24 h development. For experiments in which the Drosophila melanogaster heat shock promoter was used to drive expression of the delivered genes, a 1 h heat shock at 37° C. was provided either at 2 h or 18 h post fertilization, and development was then permitted to proceed at 20° C.
# Transfection efficiencies were also assessed in a second set of experiments that examined delivery of pHSP-GUS construct (SEQ ID NO:21). The pHSP-GUS construct was made in a two step fashion. First, the D. melanogaster heat shock promoter and terminator were isolated from the pCaSpeR-hs plasmid (Thummel and Pirrotta, 1992, Drosophila Information Service 71: 150) by PCR using the two primers: […]
# GUS activity in these experiments was measured using a fluorometric assay as previously described (Jefferson, R A 1987).
# HoxCG1 gene = experiment: Arrested development of oyster embryos transfected with hairpin dsRNA plasmid; assay type: in vivo
# Experimental: In vivo expression of dsRNA was achieved by transfecting oyster larvae with the pBiT(dHSP)-RFP-oHoxDS/BH plasmid (FIG. 21; SEQ ID NO:20), which contains the heat inducible promoter (PHSP70) from D. melanogaster driving the expression of a hairpin RNA molecule specific to the HoxCG1 gene. The construct was prepared as follows. SEQ ID NO:23 (AGAL ref #: NM99/09101) was used as a template to generate a PCR fragment using the following primers: […]
# Oyster sperm were transfected with the DNA using electroporation, and oocytes were fertilized and larvae allowed to develop for 96 hours. Embryos were heat shocked for one hour at 3 hours post fertilization to induce transcription of the dsRNAs.
# HoxCG1 = experiment: Reversible arrested oyster larval development with tetracycline-responsive plasmid; assay type: in vivo; conditions: 72 hours
# Description: The second Sterile Feral Construct tested for oysters, expresses the tTA under the Drosophila HSP. The tTA then drives expression of red fluorescent protein and double stranded oyster Hox via the TRE. Three separate fragments were ligated together to form this construct. The first fragment was obtained by digestion of pBiT(dHSP)-EGFP, (Seq ID NO:19), with HindIII and NheI followed by gel purification of the appropriate fragment containing the Drosophila HSP promoter. The second fragment was obtained by digesting pBiT(dHSP)-EGFP with NotI and MluI followed by gel purification of the appropriate fragment containing the TRE. The third fragment was obtained by digesting pHSP-oHoxDS/BH with MluI and. SpeI and gel purifying the appropriate fragment containing the 510 bp fragment of the zBMP2 cDNA from sequence 301-810 in the published cDNA sequence (Lee et al., 1998). The fourth fragment was obtained by firstly subcloning into pGEM3zf a KpnI/XbaI fragment containing the coding region of red fluorescent protein (RFP) that was excised from pDsRed1-N1 (Clontech, PT3405-5) vector. The resulting plasmid was then subjected to digestion with HindIII and PspOMI and the appropriate fragment containing the coding region of RFP was then gel purified from this reaction. […]
Substance,luciferase activity (P19 cells; 24 hours post-transfection) [cps],luciferase activity (P19 cells; 48 hours post-transfection) [cps],luciferase activity (P19 cells; 72 hours post-transfection) [cps],"luciferase activity, Average (P19 cells)","luciferase activity, Fold (P19 cells)","luciferase activity, Fold (P19-pSFM 7 cells [1])","luciferase activity, Average (P19-pSFM 7 cells [1])",intensity or number of cells expressing RFP in the nucleus (goosecoid),also measured
pSFM 20: goosecoid promoter expressing luciferase+ protein,1263,3707,1692,610,5,6,365,,luciferase activity compared to the promoterless construct (pSFM 21) (P19 cells): 6 fold
pSFM 21: promoterless luciferase+,254,604,252,121,1,1,60,,
pSFM 23: pCMV promoter expressing luciferase+,78778,145403,49936,44491,367,267,16031,,luciferase activity compared to the promoterless construct (pSFM 21) (P19 cells): 200-300 fold
pSFM 25: Tet-responsive expression vector pTRE-luciferase+,,,,183,1.5,6,368,,"luciferase activity (P19-pSFM 7 cells [2]; clone 9, with doxycycline): 54858 cps; luciferase activity (P19-pSFM 7 cells [2]; clone 9, without doxycycline): 582529 cps; luciferase activity (P19-pSFM 7 cells [2]; clone 12, with doxycycline): 4396 cps; luciferase activity (P19-pSFM 7 cells [2]; clone 12, without doxycycline): 417268 cps; luciferase activity (P19-pSFM 7 cells [2]; clone 29, with doxycycline): 48260 cps; luciferase activity (P19-pSFM 7 cells [2]; clone 29, without doxycycline): 616604 cps; luciferase activity (P19-pSFM 7 cells [2]; clone 32, with doxycycline): 19548 cps; luciferase activity (P19-pSFM 7 cells [2]; clone 32, without doxycycline): 272888 cps; luciferase activity (P19-pSFM 7 cells [2]; clone 46, with doxycycline): 8013 cps; luciferase activity (P19-pSFM 7 cells [2]; clone 46, without doxycycline): 703470 cps"
pSFM 5: Tet-responsive expression vector pTRE-goosecoid double strand RNA,,,,,,,,significant difference could not be detected,
pSFM 9: Tet-responsive expression vector pTRE-goosecoid antisense RNA,,,,,,,,significant difference could not be detected,
pHSP-GUS: expresses GUS under the control of the D. melanogaster heat shock promoter (SEQ ID NO:21),,,,,,,,,"GUS activity (Pacific oyster larvae; electroporation, heat shock): 83.2 ± 5.4 fluorescence units/μg protein; GUS activity relative to controls (Pacific oyster larvae; electroporation, heat shock): 19.8; GUS activity (Pacific oyster larvae; electroporation, no heat shock): 10.5 ± 0.5 fluorescence units/μg protein; GUS activity relative to controls (Pacific oyster larvae; electroporation, no heat shock): 2.5; GUS activity (Pacific oyster larvae; no electroporation, heat shock): 4.5 ± 0.5 fluorescence units/μg protein; GUS activity relative to controls (Pacific oyster larvae; no electroporation, heat shock): 1.1; % arrested development (HoxCG1 gene; no heat shock): 6 ± 2%; % arrested development (HoxCG1 gene; with heat shock (one hour at 3 hours post fertilization)): 8 ± 3%; % arrested development (HoxCG1; No doxycycline): 5 ± 3%; % arrested development (HoxCG1; With doxycycline (5 μg/μl)): 4 ± 3%"
pSFM 8: pCMV promoter expressing goosecoid antisense RNA,,,,,,,,significant difference could not be detected,
